Measured values as given in patent US20190328828A1, “PHARMACEUTICAL COMPOSITION, PROCESS FOR PRODUCING THE SAME, USE OF A PEPTIDE, USE OF A PHARMACEUTICAL COMPOSITION AND METHOD FOR TREATING DISEASES ASSOCIATED WITH INTRAOCULAR HYPERTENSION OR GLAUCOMA” (UNIAO QUIMICA FARMACEUTICA NACIONAL S/A, priority 2017, published 2019).

Experiments:
ganglion cells = details: rat retina explant model, White et al (2015); cited from earlier work
patients = patients treated chronically; cited from earlier work
[1] = Procedure: The absorption and biological stability tests were performed with solutions of the peptide-cyclodextrin inclusion compound. To carry out the experiments, 12 normal Wistar rats were used, which had previously cannulated the left femoral artery. […] Four blood draws (1 mL) were carried out, being the first prior to gavage, and the three others within 2, 6 and 24 hours after gavage
[2] = Long-term and accelerated stability study of raw material; type: physicochemical
Procedure: Stability is defined as the time during which pharmaceutical expertise or even raw material considered alone is maintained within specified limits and throughout the period of storage and use, the same conditions and characteristics that had upon the time of their manufacture.
Stability study was carried out in two conditions, the condition A being at 5° C.±3° C. with no humidity and condition B 25° C.±2° C. with the relative humidity of 60%±5%.

ACE = ACE (Homo sapiens, UniProt P12821); details: read-out: IC50 for inhibiting ACE; cited from earlier work
rats = details: free (non-encapsulated) peptide, RVLB microinjection, 25-50 ng, previous studies; cited from earlier work

Sequence of ACE (P12821 30-1306, species assumed): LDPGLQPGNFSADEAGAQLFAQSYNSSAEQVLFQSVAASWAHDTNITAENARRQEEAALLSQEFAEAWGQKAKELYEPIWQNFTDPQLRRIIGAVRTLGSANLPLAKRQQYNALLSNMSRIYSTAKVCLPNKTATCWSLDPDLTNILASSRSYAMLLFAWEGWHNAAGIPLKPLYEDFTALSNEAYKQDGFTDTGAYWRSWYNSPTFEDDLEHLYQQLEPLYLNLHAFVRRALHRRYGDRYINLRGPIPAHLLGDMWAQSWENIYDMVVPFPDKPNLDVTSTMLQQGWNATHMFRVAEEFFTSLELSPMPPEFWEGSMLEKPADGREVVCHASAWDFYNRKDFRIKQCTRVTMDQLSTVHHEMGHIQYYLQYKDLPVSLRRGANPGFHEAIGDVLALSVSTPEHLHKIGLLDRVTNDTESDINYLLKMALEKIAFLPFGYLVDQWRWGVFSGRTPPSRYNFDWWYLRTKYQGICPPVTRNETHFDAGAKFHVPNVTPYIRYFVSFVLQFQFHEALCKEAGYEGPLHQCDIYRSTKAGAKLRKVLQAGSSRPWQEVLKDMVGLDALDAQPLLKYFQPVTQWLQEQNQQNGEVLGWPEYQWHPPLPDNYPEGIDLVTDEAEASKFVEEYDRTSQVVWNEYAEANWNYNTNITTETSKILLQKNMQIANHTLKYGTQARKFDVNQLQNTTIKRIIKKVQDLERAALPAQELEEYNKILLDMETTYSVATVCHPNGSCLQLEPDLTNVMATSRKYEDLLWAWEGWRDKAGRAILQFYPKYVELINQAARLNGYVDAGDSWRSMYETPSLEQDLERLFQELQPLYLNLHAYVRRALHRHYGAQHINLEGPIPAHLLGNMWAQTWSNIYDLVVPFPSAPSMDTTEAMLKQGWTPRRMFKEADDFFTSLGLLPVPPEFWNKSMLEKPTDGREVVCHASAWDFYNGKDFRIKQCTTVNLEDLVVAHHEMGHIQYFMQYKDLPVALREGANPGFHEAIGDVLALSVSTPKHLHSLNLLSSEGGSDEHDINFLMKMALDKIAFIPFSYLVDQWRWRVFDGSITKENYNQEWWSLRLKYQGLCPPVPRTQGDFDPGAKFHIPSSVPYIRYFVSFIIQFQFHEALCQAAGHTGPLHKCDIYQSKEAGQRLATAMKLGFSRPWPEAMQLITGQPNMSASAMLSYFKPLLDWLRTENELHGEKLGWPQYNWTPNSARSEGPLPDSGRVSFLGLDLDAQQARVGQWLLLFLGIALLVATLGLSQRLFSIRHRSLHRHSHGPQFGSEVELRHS

CCCCC1=NC2(CCCC2)C(=O)N1Cc1ccc(-c2ccccc2-c2nnn[nH]2)cc1 [irbesartan]
survival of ganglion cells (ganglion cells): doubled

Angiotensin II
reduction of survival of ganglion cells (ganglion cells): 40%

CCOC(=O)[C@H](CCc1ccccc1)N[C@@H](C)C(=O)N1CCC[C@H]1C(=O)O [enalapril]
reduction of the risk of dementia (patients): 55%

CCC[C@H](N[C@@H](C)C(=O)N1[C@H](C(=O)O)C[C@@H]2CCCC[C@@H]21)C(=O)OCC [perindopril]
reduction of the risk of dementia (patients): 34%

CC[C@H](C)[C@H](NC(=O)[C@H](Cc1ccc(O)cc1)NC(=O)[C@@H](NC(=O)[C@H](CCCNC(=N)N)NC(=O)[C@@H](N)CC(=O)O)C(C)C)C(=O)N[C@@H](Cc1c[nH]cn1)C(=O)N1CCC[C@H]1C(=O)O [SEQ ID NO: 1, Asp-Arg-Val-Tyr-Ile-His-Pro]
increase in plasma concentration, times less than with SEQ ID NO: 1 βcyclodextrin ([1]; 6 hours after gavage): about 8 times
level at 6 h ([1]; rat, in vivo, po, 10 ug/50 ul): 0.086 ± 0.013 ng/mL
time for which the raw material is stable, long-term condition ([2]; 5° C.±3° C., no humidity): 36 months
time for which the raw material is stable, accelerated condition ([2]; 25° C.±2° C., 60% relative humidity): 6 months
IC50 (ACE): ~1000 nM
duration of pressor effect (rats): approximately 10 min
increase in arterial pressure (rats): 15 mmHg
